Assay results published in patent US5691135A, “Immunoglobulin superantigen binding to gp 120 from HIV” (The Regents of the University of California, priority 1994, dated 1997).
Where “and” joins values, the source holds several entries; their conditions need not be identical. Equal entries are not always repeated. Entries after “also recorded” stand apart in the source; their conditions may differ.

Assays:
[1] = tested on: VH3 IgM binding to gp120
[2] = tested on: polyclonal serum IgM binding to gp120 from HIV-1SF2; set-up: species or system human; conditions: for RESIDUAL BINDING TO gp120 (% OF CONTROL), 1.0 μM PEPTIDE / RESIDUAL BINDING TO gp120 (% OF CONTROL), 10.0 μM PEPTIDE: gp120 elisa
[3] = tested on: monoclonal IgM VNG binding to gp120; set-up: species or system human; conditions: for RESIDUAL BINDING TO gp120 (% OF CONTROL), 1.0 μM PEPTIDE / RESIDUAL BINDING TO gp120 (% OF CONTROL), 10.0 μM PEPTIDE: gp120 elisa
[4] = tested on: monoclonal IgM HEA binding to gp120; set-up: species or system human; conditions: for RESIDUAL BINDING TO gp120 (% OF CONTROL), 1.0 μM PEPTIDE / RESIDUAL BINDING TO gp120 (% OF CONTROL), 10.0 μM PEPTIDE: gp120 elisa
[5] = tested on: panel of Ig-SAg binding antibodies (polyclonal IgM plus four monoclonal IgM) binding to gp120; set-up: species or system human
[6] = tested on: monoclonal IgM RSJ binding to gp120; set-up: species or system human; conditions: gp120 elisa
[7] = tested on: monoclonal IgM VIN binding to gp120; set-up: species or system human; conditions: gp120 elisa
[8] = tested on: CD19+ tonsil B-cells; format: cell-based, human
[9] = tested on: tonsil T-cells (CD19-, CD3+); format: cell-based, human

Row | Substance | RESIDUAL BINDING TO gp120 (% OF CONTROL), 1.0 μM PEPTIDE [3] [% OF CONTROL] | RESIDUAL BINDING TO gp120 (% OF CONTROL), 10.0 μM PEPTIDE [3] [% OF CONTROL] | RESIDUAL BINDING TO gp120 (% OF CONTROL), 1.0 μM PEPTIDE [4] [% OF CONTROL] | RESIDUAL BINDING TO gp120 (% OF CONTROL), 10.0 μM PEPTIDE [4] [% OF CONTROL] | RESIDUAL BINDING TO gp120 (% OF CONTROL), 1.0 μM PEPTIDE [6] [% OF CONTROL] | RESIDUAL BINDING TO gp120 (% OF CONTROL), 10.0 μM PEPTIDE [6] [% OF CONTROL] | RESIDUAL BINDING TO gp120 (% OF CONTROL), 1.0 μM PEPTIDE [2] [% OF CONTROL] | RESIDUAL BINDING TO gp120 (% OF CONTROL), 10.0 μM PEPTIDE [2] [% OF CONTROL] | RESIDUAL BINDING TO gp120 (% OF CONTROL), 1.0 μM PEPTIDE [7] [% OF CONTROL] | RESIDUAL BINDING TO gp120 (% OF CONTROL), 10.0 μM PEPTIDE [7] [% OF CONTROL] | other results
1 | actin |  |  |  |  |  |  |  |  |  |  | inhibition of gp120 binding to VH3 IgM [1]: neither actin nor the 1925 peptide inhibited
2 | DTEVHNVWATQACVPTDPNP [Peptide 1925, gp160 peptide 61-81, HIV-1 MN] |  |  |  |  |  |  |  |  |  |  | inhibition of gp120 binding to VH3 IgM [1]: neither actin nor the 1925 peptide inhibited
3 | CTRPNYNKRKRIHIGPGRAF [Peptide 1985, gp160 peptide 301-320, HIV-1 MN] | 27.4 ± 0.5 | 24.2 ± 0.1 |  |  |  |  |  |  |  |  | inhibition of polyclonal serum IgM binding to gp120 [2]: does not inhibit; binding of VNG to peptide [3]: bound
4 | LKCNDKKFSGKGSCKNVSTV [Peptide 1959, gp160 peptide 231-250, HIV-1 MN] | 48.7 ± 0.9 | 13.7 ± 3.6 | 28.3 ± 3.7 | 8.4 ± 5.3 | 40.5 ± 8.2 | 17.2 ± 1.7 | 37.0 ± 4.4 | 16.8 ± 8.4 | 12.6 ± 1.0 | 8.0 ± 0.2 | peptide binding across all Ig tested [5]: bound to all Ig tested
5 | TKAKRRVVQREKRAAIGALP [Peptide 2015, gp160 peptide 501-520, HIV-1 MN] | 83.0 ± 6.3 | 37.7 ± 2.0 |  |  |  |  | 44.5 ± 5.4 | 29.3 ± 5.1 | 23.7 ± 3.4 | 6.5 ± 2.0 | 
6 | MRVKGIRRNYQHWWGWGTM [Peptide 1919, gp160 peptide, amino acids 1-20, HIV-1 MN] | 46.4 ± 20.2 | 3.3 ± 1.7 | 56.1 ± 3.6 | 15.1 ± 2.1 | 11.1 ± 1.5 | 1.3 ± 0.1 | 17.6 ± 0.2 |  | 28.1 ± 5.0 | 14.8 ± 2.0 | inhibition of IgM binding to gp120 by shared peptides [5]: abolished the binding of IgM to gp120; peptide binding across all Ig tested [5]: bound to all Ig tested; also recorded: bound to all of the monoclonal antibodies as well as to polyclonal serum IgM; inhibition of gp120 binding to VH3 IgM [1]: inhibited gp120 binding to VH3 IgM
7 | KQIINMWQEVGKAMYAPPIE [Peptide 2007, gp160 peptide 421-440, HIV-1 MN] |  |  | 56.2 ± 4.7 | 10.3 ± 0.5 | 24.1 ± 0.1 | 3.1 ± 0.7 | 59.1 ± 0.8 | 19.8 ± 5.4 | 69.8 ± 4.2 | 21.2 ± 1.2 | 
8 | gp120: recombinant gp120 from HIV-1SF2 expressed in CHO cells |  |  |  |  |  |  |  |  |  |  | fraction of B-cell population (CD19+) that bound gp120 [8]: 4% and 3-6%; fraction of T-cell population (CD19-) that bound gp120 [9]: 68% and 65%
9 | KGSCKNVSTVQCTHGIRPVV [Peptide 1960, gp160 peptide 241-260, HIV-1 MN] | 58.1 ± 0 | 32.3 ± 7.1 | 11.3 ± 2.5 | 6.2 ± 3.0 | 10.2 ± 2.4 | 4.2 ± 5.0 | 19.2 ± 1.0 | 11.7 ± 2.3 | 6.2 ± 1.3 | 5.8 ± 1.3 | peptide binding across all Ig tested [5]: bound to all Ig tested
10 | RQAHCNISRAKWNDTLRQIV [Peptide 1988, gp160 peptide 331-350, HIV-1 MN] |  |  | 92.8 ± 0.4 | 40.8 ± 6.1 | 20.3 ± 1.5 | 13.5 ± 0.4 | 39.9 ± 3.6 | 23.7 ± 9.7 | 12.4 ± 0.6 | 12.2 ± 7.8 | 
11 | thyroglobulin |  |  |  |  |  |  |  |  |  |  | inhibition of gp120 binding to VH3 IgM [1]: inhibited gp120 binding to VH3 IgM
12 | YTTKNIIGTIRQAHCNISRA [Peptide 1987, gp160 peptide 321-340, HIV-1 MN] |  |  |  |  | 56.8 ± 0.3 | 42.2 ± 3.4 |  |  |  |  | 
13 | EGTIKGGEMKNCSFNITTSI [Peptide 1934, gp160 peptide 151-170, HIV-1 MN] |  |  |  |  | 13.9 ± 0.3 |  |  |  |  |  | 
14 | GKAMYAPPIEGQIRCSSNIT [Peptide 2008, gp160 peptide 431-450, HIV-1 MN] |  |  |  |  |  |  |  |  | 108 ± 4.3 | 15.7 ± 1.7 | 
15 | CRIKQIIMWQKVGKAMYAPPISG [Peptide 1589, gp160 peptide 418-441, HIV-1 IIIB] |  |  |  |  |  |  |  |  |  |  | inhibition of HEA binding to gp120 [4]: inhibited the binding of HEA to gp120
16 | KWNDTLRQIVSKLKEQFKNK [Peptide 1989, gp160 peptide 341-360, HIV-1 MN] |  |  | 98.3 ± 0.1 | 26.2 ± 0.8 |  |  | 88.5 ± 3.6 | 24.6 ± 6.6 | 96.6 ± 6.1 | 13.4 ± 1.8 | 
